Experimental findings from ChEMBL document CHEMBL1201862, “PubChem BioAssay data set” (2004) are described below.

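Cultured in 96-well plates, cells were exposed to test compound for 48 hours across five concentrations. The concentration for 50% growth inhibition is given as GI50.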 Calls of active or inactive are those of the source. Cut-off read from the data, not from the text of the source: active = GI50 up to about 1.1 µM and inactive = higher.

Test systems include SF-295; UACC-62; TK-10; HOP-92; PC-3; Hs-578T; SN12C; HOP-62; 786-0; RPMI-8226; CAKI-1; HCC 2998; MDA-MB-435; NCI/ADR-RES; SNB-19; SF-268; SK-MEL-5; ACHN; T47D; BT-549.
Assay in all cases: NCI tumour cell line growth inhibition, 48 h

Take `C=CC[C@@]12CCC(=O)C=C1CCCC2=O`: the GI50 in the assay with SF-295, in the assay with UACC-62, in the assay with TK-10, with HOP-92, with PC-3 and with Hs-578T was > 100 µM (inactive) each time. Moreover, the GI50 in the assay on SN12C, with HOP-62, in the assay on 786-0, with RPMI-8226, in the assay with CAKI-1 and in the assay on HCC 2998 was > 100 µM (inactive) in each case. The GI50 in the assay with MDA-MB-435, in the assay on NCI/ADR-RES, with SNB-19, with SF-268, in the assay with SK-MEL-5 and in the assay on ACHN was > 100 µM (inactive) in each case. In addition, the GI50 in the assay on T47D is > 100 µM (inactive).
`COc1cc([C@@H]2c3cc4c(cc3[C@@H](Nc3ccc(/N=C\c5ccc(C(=O)O[C@@H](C(=O)O[C@H]6C[C@@]7(O)[C@@H](OC(=O)c8ccccc8)[C@@H]8[C@]9(OC(C)=O)CO[C@@H]9C[C@H](O)[C@@]8(C)C(=O)[C@H](OC(C)=O)C(=C6C)C7(C)C)[C@@H](NC(=O)c6ccccc6)c6ccccc6)cc5)cc3)[C@H]3COC(=O)[C@H]23)OCO4)cc(OC)c1O`: the GI50 was 1.99 µM (inactive) with SF-295; 4.26 µM (inactive) in the assay with UACC-62; 10.4 µM (inactive) in the assay with TK-10; 6.38 µM (inactive) in the assay with HOP-92; > 46.1 µM (inactive) in the assay on PC-3; 2.88 µM (inactive) in the assay on SN12C. Also, the GI50 is 2.93 µM (inactive) in the assay on HOP-62; 2.63 µM (inactive) in the assay with 786-0; 2.59 µM (inactive) in the assay with RPMI-8226; 0.916 µM (active) with CAKI-1; 14.9 µM (inactive) in the assay with HCC 2998; 0.208 µM (active) with MDA-MB-435. For the same compound, the GI50 is > 45.8 µM (inactive) with NCI/ADR-RES; 2.48 µM (inactive) in the assay with SNB-19; 4.34 µM (inactive) in the assay on SF-268; 2.96 µM (inactive) in the assay with SK-MEL-5; 0.455 µM (active) with ACHN; 9.48 µM (inactive) with BT-549. In addition, the GI50 in the assay with T47D is 11.4 µM (inactive).
For the compound `CCN1CCC(O)(/C=C/c2ccc(OC)cc2)C(C(=O)/C=C/c2ccc(OC)cc2)C1` (centres undefined), the GI50 with SF-295 is 11.8 µM (inactive); in the assay with UACC-62, 12 µM (inactive); in the assay on TK-10, 13.8 µM (inactive); with HOP-92, 9.48 µM (inactive); in the assay on PC-3, 11.3 µM (inactive); in the assay with SN12C it was 14.8 µM (inactive). In addition, the GI50 is 18.2 µM (inactive) in the assay with HOP-62; 4.03 µM (inactive) with 786-0; 2.26 µM (inactive) in the assay on RPMI-8226; 14.9 µM (inactive) with HCC 2998; 6.05 µM (inactive) with MDA-MB-435; 6.15 µM (inactive) with NCI/ADR-RES. In addition, the GI50 in the assay on SNB-19 was 15.1 µM (inactive); in the assay with SF-268 it was 13.8 µM (inactive); in the assay with ACHN, 13.7 µM (inactive); in the assay on BT-549, 15.5 µM (inactive); with T47D it was 6.04 µM (inactive).
Take `COc1cccc(N(CN2C(=O)CCC2OC)C(C)=O)c1` (centres undefined): the GI50 in the assay with SF-295, in the assay with UACC-62, with TK-10, with HOP-92, in the assay on PC-3 and with Hs-578T was > 100 µM (inactive) in each case. Moreover, the GI50 with SN12C, in the assay on HOP-62, in the assay on 786-0, in the assay on RPMI-8226, in the assay on CAKI-1 and with HCC 2998 was > 100 µM (inactive) throughout. Moreover, the GI50 in the assay with MDA-MB-435, in the assay on NCI/ADR-RES, in the assay with SNB-19, in the assay on SF-268, in the assay with SK-MEL-5 and with ACHN was > 100 µM (inactive) in each case. In addition, in the assay with T47D, the GI50 is > 100 µM (inactive).
With `N#CCCC1(CCC#N)CCCCCCCCC(CCC#N)(CCC#N)C(O)C1O` (centres undefined), the GI50 with SF-295 was > 100 µM (inactive); in the assay with UACC-62, > 100 µM (inactive); in the assay with TK-10 it was 74.8 µM (inactive); in the assay with HOP-92, > 100 µM (inactive); in the assay with PC-3 it was > 100 µM (inactive); in the assay with Hs-578T, 52 µM (inactive). The GI50 with SN12C is > 100 µM (inactive); with HOP-62, 61.7 µM (inactive); with 786-0 it was > 100 µM (inactive); in the assay with RPMI-8226, < 0.01 µM (active); with CAKI-1, > 100 µM (inactive); in the assay on HCC 2998, > 100 µM (inactive). The GI50 was > 100 µM (inactive) with MDA-MB-435; > 100 µM (inactive) in the assay on NCI/ADR-RES; 66.7 µM (inactive) in the assay with SNB-19; 37.8 µM (inactive) with SF-268; > 100 µM (inactive) in the assay on SK-MEL-5; > 100 µM (inactive) with ACHN. For the same compound, the GI50 with T47D is > 100 µM (inactive).
As to `O=c1c(Br)cc2c(-c3ccccc3)c3cc(Br)c(O)c(Br)c3oc-2c1Br`, the GI50 is 84.9 µM (inactive) with SF-295; > 100 µM (inactive) with UACC-62; > 100 µM (inactive) in the assay on TK-10; > 100 µM (inactive) with HOP-92; > 100 µM (inactive) with PC-3; > 100 µM (inactive) in the assay on Hs-578T. The GI50 is > 100 µM (inactive) in the assay with SN12C; > 100 µM (inactive) in the assay with HOP-62; > 100 µM (inactive) with 786-0; > 100 µM (inactive) with RPMI-8226; > 100 µM (inactive) in the assay with CAKI-1; 83.8 µM (inactive) in the assay on HCC 2998. For the same compound, the GI50 in the assay with MDA-MB-435, in the assay on NCI/ADR-RES, in the assay on SNB-19, in the assay with SF-268, in the assay on SK-MEL-5 and with ACHN was > 100 µM (inactive) throughout. Besides, the GI50 with T47D was > 100 µM (inactive).
`O=[N+]([O-])c1ccc(OCc2nnc(CCCCCCCCc3nnc(COc4ccc([N+](=O)[O-])cc4)o3)o2)cc1`: the GI50 with SF-295, in the assay with UACC-62, with TK-10, in the assay with HOP-92, in the assay on PC-3 and in the assay with SN12C was > 100 µM (inactive) each time. For the same compound, the GI50 with 786-0, with RPMI-8226, with HCC 2998, with MDA-MB-435, with NCI/ADR-RES and with SNB-19 was > 100 µM (inactive) throughout. The GI50 was 44.5 µM (inactive) with SF-268, > 100 µM (inactive) in the assay on SK-MEL-5, > 100 µM (inactive) with ACHN and > 100 µM (inactive) with BT-549.
Consider `CC(C)=CCC(O)[C@](C)(O)[C@H]1[C@H](O)C[C@@]2(C)[C@@H]3CCc4cc(O)c(OC5OC(CO)C(O)C(O)C5O)cc4C3(C)C(=O)C[C@]12C` (some centres undefined), for which the GI50 in the assay with SF-295, in the assay on UACC-62, with TK-10, in the assay with HOP-92, with PC-3 and in the assay on SN12C was > 100 µM (inactive) in each case. Further, the GI50 in the assay with HOP-62, in the assay on 786-0, in the assay on CAKI-1, in the assay with HCC 2998, in the assay on MDA-MB-435 and with NCI/ADR-RES was > 100 µM (inactive) each time. Also, the GI50 with SNB-19, with SF-268, in the assay with SK-MEL-5, in the assay on ACHN, with BT-549 and in the assay on T47D was > 100 µM (inactive) in each case.
Regarding `CC1(C)CCC[C@]2(C)[C@@H]1CC[C@@]13O[C@@H]1C1=C(CO)C(=O)O[C@]14O[C@@H]4[C@@H]23`, the GI50 in the assay on SF-295 was 16.1 µM (inactive); in the assay with UACC-62, 10.9 µM (inactive); in the assay with TK-10, 17.6 µM (inactive); in the assay on HOP-92, 14 µM (inactive); with PC-3, 9.1 µM (inactive); in the assay on SN12C, 5.9 µM (inactive). In addition, the GI50 was 17.8 µM (inactive) with HOP-62; 15.2 µM (inactive) with 786-0; > 100 µM (inactive) in the assay with RPMI-8226; 12.8 µM (inactive) in the assay with CAKI-1; 19.2 µM (inactive) in the assay on HCC 2998; 10.4 µM (inactive) in the assay on MDA-MB-435. The GI50 is 14.9 µM (inactive) in the assay with NCI/ADR-RES; 14.8 µM (inactive) in the assay with SNB-19; 15 µM (inactive) with SF-268; 13.2 µM (inactive) in the assay on SK-MEL-5; 14.3 µM (inactive) with ACHN; 14.7 µM (inactive) with BT-549. Moreover, the GI50 with T47D was 22 µM (inactive).
Regarding `Cc1ncc([N+](=O)[O-])n1CCNC(=O)CCCn1cnc([N+](=O)[O-])n1`, the GI50 with SF-295 is > 100 µM (inactive); in the assay on UACC-62 it was > 100 µM (inactive); in the assay with TK-10, > 45.8 µM (inactive); with HOP-92, > 100 µM (inactive); in the assay on PC-3, > 100 µM (inactive); in the assay on Hs-578T, > 100 µM (inactive). Further, the GI50 is > 41.8 µM (inactive) in the assay on SN12C; > 100 µM (inactive) with HOP-62; > 100 µM (inactive) in the assay with 786-0; > 100 µM (inactive) in the assay with RPMI-8226; > 100 µM (inactive) in the assay on CAKI-1; > 100 µM (inactive) in the assay with HCC 2998. The GI50 was > 100 µM (inactive) in the assay on MDA-MB-435; > 100 µM (inactive) with NCI/ADR-RES; > 100 µM (inactive) in the assay on SNB-19; > 100 µM (inactive) with SF-268; > 72.4 µM (inactive) with SK-MEL-5; > 100 µM (inactive) in the assay on ACHN. In addition, the GI50 in the assay with T47D is > 100 µM (inactive).
